Tests used:
MK-801-treated rodents = assay: Passive avoidance task in MK-801 cognition impairment model; type: in vivo, rodents (mice or rats); details: 5 mg/Kg s.c. 35 min before shock session; MK-801 0.2 mg/kg i.p.; FIG. 2
Description: The new compounds were evaluated for their efficacy as cognition enhancers in a pharmacological model for cognitive impairment. The effects of the new compounds were evaluated in untreated and MK-801-treated rodents (mice or rats). MK-801 is a non-competitive antagonist of the N-Methyl-D-aspartate (NMDA) receptor which impairs animal performance in various learning and memory paradigms (Castellano C et al., Curr. Drug Targets 2001; 2:273-83; Riedel G et al., Behav. Brain Res. 2003; 140:1-47). MK-801 also produces various effects on rodent behavior, including deficits in sensory processing, hypermotility, stereotypy and ataxia. […]
For the evaluation of the passive avoidance task, a two-compartment box with a light compartment and a dark compartment of the same dimensions was used. […] In the evaluation session, the time which the animal takes to enter the dark compartment (in seconds) was measured, as a sign of memory retention of the shock received in the dark compartment during the previous session. […] The corresponding evaluated compound was injected s.c. 35 min before the shock session, followed 15 minutes later by i.p. injection of MK-801, or PBS in the case of the control, in the same doses and volume as described for the object recognition test.

[1] = molecular target: human prolyl oligopeptidase (Homo sapiens (Human), UniProt P48147); assay: POP inhibition assay (Z-G-P-AMC substrate, fluorimetric); type: biochemical; details: 100 mM Na/K phosphate buffer, pH 8.0, hPOP 20 to 60 nM, Z-G-P-AMC, 1 hour at 37° C.; read-out: IC50, inhibition of human prolyl oligopeptidase
Description: Expression and Purification of Prolyl Oligopeptidase (POP)
POP was obtained by expression in E. coli and affinity purification using a His tail fusion according to a literature procedure (Tarragó T et al., ChemBioChem 2006; 7:827-33) summarized below:
hPOP expression: E. coli BL21 competent cells were transformed with pETM10 hPOP. To induce expression, a pre-culture of LB medium (50 mL) containing kanamycin (50 μg/mL) was inoculated with one colony and was grown overnight at 37° C. Next day, two cultures of LB medium (500 mL) were inoculated with the overnight culture (10 mL). The inoculated cultures were grown at 37° C. and 220 rpm until the OD595 was 1.2 (2.5-3 hours). IPTG was then added (final concentration of 1 mM) and induction was performed overnight at 25° C. Cells were harvested (3500 g, 15 min, 4° C.) and the pellet was suspended in suspension buffer (50 mL) [Tris-HCl pH 8 (50 mM), NaCl (300 mM), imidazole (1 mM)] and sonicated with use of four cycles (each consisting of 15 sec of sonication and 15 sec of rest) at an intensity of 50% and 0.5 pulses, the sample being kept on ice. After sonication, the sample was centrifuged (40 000 g, 30 min, 4° C.) and the supernatant was used immediately for POP purification. An ÁKTA explorer FPLC system was used for purification. The supernatant was applied at a flow of 1 mL/min to a HiTrapQuelating column (5 mL) previously equilibrated with 5 column volumes of suspension buffer. The column was washed with suspension buffer until the absorbance at 280 nm returned to basal level. The column was then rinsed with 5 volumes of washing buffer (50 mM Tris-HCl, pH 8, 300 mM NaCl, 30 mM imidazole). The elution was performed with 4 volumes of elution buffer (50 mM Tris-HCl, pH 8, 300 mM NaCl, 500 mM imidazole). Fractions (4 mL) were collected during the entire elution. POP activity was checked in all fractions and positive ones were analyzed by SDS-PAGE and stained with Biosafe Comassie Stain G-250. Positive fractions were collected and desalted by use of a HiPrep 26/10 Desalting column with Tris-HCl (50 mM, pH 8) as buffer. Recombinant hPOP was quantified with the Bio-Rad Protein Assay with BSA as standard. Aliquots of the recombinant enzyme were prepared and immediately frozen with liquid nitrogen and stored at −80° C.
POP activity was determined following the method described by Toide et al (Toide K et al., J. Pharmacol. Exp. Ther. 1995; 274:1370-8), using Z-G-P-AMC (N-benzyloxycarbonyl-Gly-Pro-methylcoumarinyl-7-amide) as POP substrate. The reactions were performed in 96-well microtiter plates, which allowed simultaneous monitoring of multiple reactions. For each reaction, activity buffer (134 μl, 100 mM Na/K phosphate buffer, pH 8.0) was pre-incubated for 15 min at 37° C. with hPOP (ranging from 20 to 60 nM, depending on the activity of the hPOP batch) and the corresponding new compound solution (3 μl). A stock solution of new compound was prepared in DMSO (100 mM), and dilutions were prepared from this stock solution with DMSO. Alternatively, the reactions were performed using another activity buffer (141 μL, 100 mM Tris-acetate, […], 1 mM DTT, pH 7.3), pre-incubating with hPOP (10 nM) and the corresponding new compound solution (3 μl) (Conditions B).
After preincubation, Z-G-P-AMC (10 μl, 3 mM in 40% 1,4-dioxane) was added (3 μl, 1.5 mM in 40% of 1,4-dioxane, in Conditions B), and the reaction was incubated for 1 hour at 37° C. The reaction was stopped by adding sodium acetate (150 μl, 1 M, pH 4) and the formation of AMC was measured fluorimetrically. The excitation and emission wavelengths were 360/40 and 485/20 nm, respectively.
Several concentration points (ranging from 25 μM to 400 μM) were measured for each compound. The inhibitory activity on prolyl oligopeptidase was calculated according to eq 1. For each new compound, the fluorescence in the presence (a) and in the absence of hPOP (b) was measured. […]

human prolyl oligopeptidase, sequence (P48147 whole entry): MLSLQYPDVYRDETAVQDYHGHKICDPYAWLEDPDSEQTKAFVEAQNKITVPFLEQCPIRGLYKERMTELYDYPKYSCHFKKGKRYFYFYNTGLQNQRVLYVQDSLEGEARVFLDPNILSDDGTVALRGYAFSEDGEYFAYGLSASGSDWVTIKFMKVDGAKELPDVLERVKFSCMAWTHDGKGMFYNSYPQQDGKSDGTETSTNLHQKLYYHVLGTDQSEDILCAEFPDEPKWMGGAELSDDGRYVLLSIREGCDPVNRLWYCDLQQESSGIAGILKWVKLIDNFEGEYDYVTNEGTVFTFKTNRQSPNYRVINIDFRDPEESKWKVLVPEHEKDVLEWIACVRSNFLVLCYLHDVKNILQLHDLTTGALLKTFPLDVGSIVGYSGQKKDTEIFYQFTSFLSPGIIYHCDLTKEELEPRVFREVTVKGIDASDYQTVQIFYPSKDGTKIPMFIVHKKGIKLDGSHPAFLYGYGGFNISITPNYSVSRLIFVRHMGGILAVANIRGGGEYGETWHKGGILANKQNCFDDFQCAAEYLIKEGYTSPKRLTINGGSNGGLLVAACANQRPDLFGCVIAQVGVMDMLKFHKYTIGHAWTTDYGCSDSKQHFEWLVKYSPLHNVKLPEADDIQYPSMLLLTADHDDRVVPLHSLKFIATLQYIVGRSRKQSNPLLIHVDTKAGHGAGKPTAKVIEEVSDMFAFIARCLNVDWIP

IC50 [1]: 48.7 nM
SMILES: COc1cc(C(=O)N2CC(F)(F)C[C@H]2C(=O)N2CCC[C@H]2C#N)cc(OC)c1OCc1ccccc1 [Example 4, (S)-1-((2S)-1-(4-(benzyloxy)-3,5-dimethoxybenzoyl)-4,4-difluoropyrrolidine-2-carbonyl)pyrrolidine-2-carbonitrile]
Reversal of MK-801-induced memory impairment in the passive avoidance test (latency to enter dark compartment) (MK-801-treated rodents): able to reverse MK-801-induced memory impairment

From patent US10125097B2, “1- [1-(benzoyl)-pyrrolidine-2-carbonyl]-pyrrolidine-2-carbonitrile derivatives” (UNIVERSITAT DE BARCELONA, priority 2012, dated 2018)
